Source: paper PMC9159852, “Synthesis, Structure, and Biologic Activity of Some Copper, Nickel, Cobalt, and Zinc Complexes with 2-Formylpyridine N^4-Allylthiosemicarbazone” (Bioinorganic Chemistry and Applications, 2022)
Values after ≈ are worked out from the molar mass of the structure shown. Values belong to the compound of their own block, whether it stands above or below them.

Key:
[1] = test system: Escherichia coli (ATCC 25922); set-up: method as in PMID 25708540; details: E. coli (G-), reference drug; cited from earlier work
[2] = test system: Staphylococcus aureus (ATCC 25923); set-up: method as in PMID 25708540; details: S. aureus (G+), reference drug; cited from earlier work
[3] = test system: Candida albicans (ATCC 10231); set-up: method as in PMID 25708540; details: C. albicans, reference drug; cited from earlier work
[4] = set-up: method as in doi:10.1134/s1070363221010114; details: standard antioxidant; read-out: IC50 toward ABTS•+ radical cation; cited from earlier work

melting point: 180 to 182 °C
Structure (SMILES): C=CCNC(=S)NN=Cc1cccnc1

melting point: 163 to 165 °C
Structure (SMILES): C=CCNC(=S)NN=Cc1ccncc1

Structure (SMILES): NC(=O)N/N=C/c1ccc([N+](=O)[O-])o1 [Furacillinum, furacillinum]
MBC [1]: 37.5 µg/mL (≈ 189 µM)
MIC [1]: 18.5 µg/mL (≈ 93.4 µM)
MBC [2]: 9.3 µg/mL (≈ 46.9 µM)
MIC [2]: 9.3 µg/mL (≈ 46.9 µM)

Structure (SMILES): C[C@@H]1[C@H](O)[C@@H](C)/C=C/C=C/CC/C=C/C=C/C=C/C=C/C(O[C@H]2O[C@H](C)[C@@H](O)[C@H](N)[C@@H]2O)CC2O[C@](O)(CC(O)C(O)CCC(O)CC(O)CC(O)CC(=O)O[C@H]1C)CC(O)C2C(=O)O (stereo partly drawn) [Nystatin, nystatin]
MFC [3]: 80 µg/mL (≈ 86.4 µM)
MIC [3]: 80 µg/mL (≈ 86.4 µM)

Structure (SMILES): Cc1c(C)c2c(c(C)c1O)CCC(C)(C(=O)O)O2 (stereo not drawn) [Trolox, trolox]
IC50 [4]: 33 ± 0.7 µM
